Where two headings read alike, the source gives them in different places.
Molecular target: T1, ClC-7 (Rattus norvegicus, UniProt P51799)
T1 construct: gene Clcn7; wt rat ClC-7 with C-terminal EGFP fusion; with Ostm1 (mouse)
T1 sequence (P51799 1-803): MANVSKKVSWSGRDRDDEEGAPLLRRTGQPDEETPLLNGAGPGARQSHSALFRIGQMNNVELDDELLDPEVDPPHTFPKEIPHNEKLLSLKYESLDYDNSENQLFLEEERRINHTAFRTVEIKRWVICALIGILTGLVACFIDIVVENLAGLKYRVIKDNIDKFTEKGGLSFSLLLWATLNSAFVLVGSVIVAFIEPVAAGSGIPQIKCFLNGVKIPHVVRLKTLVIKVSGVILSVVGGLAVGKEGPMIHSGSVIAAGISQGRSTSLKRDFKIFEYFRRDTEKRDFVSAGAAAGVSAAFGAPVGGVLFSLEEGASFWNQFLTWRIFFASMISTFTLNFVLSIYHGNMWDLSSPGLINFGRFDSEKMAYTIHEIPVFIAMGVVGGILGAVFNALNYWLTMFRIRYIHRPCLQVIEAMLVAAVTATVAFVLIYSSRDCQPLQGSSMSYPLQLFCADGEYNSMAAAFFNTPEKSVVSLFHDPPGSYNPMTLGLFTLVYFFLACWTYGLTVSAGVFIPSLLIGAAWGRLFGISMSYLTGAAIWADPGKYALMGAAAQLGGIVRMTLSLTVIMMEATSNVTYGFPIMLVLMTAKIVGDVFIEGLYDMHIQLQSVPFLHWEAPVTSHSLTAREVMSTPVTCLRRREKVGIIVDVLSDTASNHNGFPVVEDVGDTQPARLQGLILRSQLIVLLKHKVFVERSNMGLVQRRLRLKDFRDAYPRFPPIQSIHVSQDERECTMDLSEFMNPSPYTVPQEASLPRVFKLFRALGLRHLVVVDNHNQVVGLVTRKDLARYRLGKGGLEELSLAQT
T1 sequence (Q8BGT0 35-338 partner): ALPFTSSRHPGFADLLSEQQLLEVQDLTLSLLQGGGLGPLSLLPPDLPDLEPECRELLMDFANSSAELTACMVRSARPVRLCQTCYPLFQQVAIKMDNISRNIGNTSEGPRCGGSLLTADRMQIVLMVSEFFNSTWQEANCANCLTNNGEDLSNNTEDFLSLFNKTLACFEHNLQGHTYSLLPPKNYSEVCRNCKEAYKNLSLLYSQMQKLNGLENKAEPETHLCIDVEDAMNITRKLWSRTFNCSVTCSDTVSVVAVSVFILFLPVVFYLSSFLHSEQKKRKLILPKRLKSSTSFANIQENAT
Assay: SSM-based electrophysiology on lysosomal membrane fraction of CHO cells, […] NaCl jump
Assay type: biochemical

IC50 (read-out: IC50) [µM]	Molecule	IC50 [µM]
39 ± 3.8	O=S(=O)(O)c1cc(N=C=S)ccc1C=Cc1ccc(N=C=S)cc1S(=O)(=O)O [compound 1, 4,4′-diisothiocyanatostilbene-2,2′-disulfonic acid]	–
–	O=C(O)c1cc([N+](=O)[O-])ccc1NCCCc1ccccc1 [compound 3, 5-nitro-2-(3-phenylpropylamino)benzoic acid]	156 ± 7.8
52 ± 8	NS5818 [compound 2]	–
